Laboratory results reported in ChEMBL document CHEMBL4706528, “The design, synthesis and anti-tumor mechanism study of new androgen receptor degrader” (Eur J Med Chem, 2020).

Key:
[1] = tested on: LNCaP C4-2B; assay: Antiproliferative activity against androgen-sensitive positive human LNCaP C4-2B cells assessed as cell growth inhibition measured after 72 hrs by SRB assay; format: functional, cell-based
[2] = molecular target: T1, Androgen receptor (Homo sapiens) (UniProt P10275); assay: Binding affinity to androgen receptor LBD (unknown origin) at 10 uM incubated for 4 hrs under dark by fluorescence polarization based binding assay relative to R1881
T1 sequence (whole entry): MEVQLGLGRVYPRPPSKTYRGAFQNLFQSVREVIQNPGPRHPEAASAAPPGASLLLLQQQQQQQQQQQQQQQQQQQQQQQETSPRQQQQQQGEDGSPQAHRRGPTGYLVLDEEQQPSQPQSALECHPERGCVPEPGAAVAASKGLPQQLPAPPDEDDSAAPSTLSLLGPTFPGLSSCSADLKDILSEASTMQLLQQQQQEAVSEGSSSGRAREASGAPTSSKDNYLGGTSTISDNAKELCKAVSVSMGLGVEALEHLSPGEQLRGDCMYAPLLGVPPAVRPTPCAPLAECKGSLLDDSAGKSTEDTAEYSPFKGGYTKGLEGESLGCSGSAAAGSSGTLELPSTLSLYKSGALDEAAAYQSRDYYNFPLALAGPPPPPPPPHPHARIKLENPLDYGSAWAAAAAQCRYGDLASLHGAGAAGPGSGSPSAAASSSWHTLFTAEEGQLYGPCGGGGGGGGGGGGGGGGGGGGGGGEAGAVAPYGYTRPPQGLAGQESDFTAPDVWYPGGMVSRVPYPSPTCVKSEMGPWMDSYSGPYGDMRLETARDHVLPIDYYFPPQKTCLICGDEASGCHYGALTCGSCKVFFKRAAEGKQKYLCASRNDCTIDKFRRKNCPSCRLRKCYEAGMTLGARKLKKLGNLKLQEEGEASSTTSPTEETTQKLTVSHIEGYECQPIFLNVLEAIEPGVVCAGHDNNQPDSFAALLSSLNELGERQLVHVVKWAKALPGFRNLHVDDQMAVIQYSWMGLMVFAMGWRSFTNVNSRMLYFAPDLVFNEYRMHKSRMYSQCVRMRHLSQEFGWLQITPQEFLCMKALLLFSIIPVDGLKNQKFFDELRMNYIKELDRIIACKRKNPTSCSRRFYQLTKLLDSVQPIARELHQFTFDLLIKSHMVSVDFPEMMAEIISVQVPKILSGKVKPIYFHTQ

[3] = tested on: GES1; assay: Cytotoxicity against androgen-negative human GES1 cells assessed as cell growth inhibition measured after 72 hrs by SRB assay; format: cell-based; settings: GES1, 72 h
[4] = Cytotoxicity against androgen-negative human WPMY-1 cells assessed as cell growth inhibition measured after 72 hrs by SRB assay; format: cell-based; settings: WPMY-1, 72 h
[5] = tested on: MCF7; assay: Antiproliferative activity against androgen-positive human MCF7 cells assessed as cell growth inhibition measured after 72 hrs by SRB assay; format: functional, cell-based; settings: MCF7, 72 h
[6] = tested on: LNCaP; assay: Antiproliferative activity against androgen-positive human LNCaP cells assessed as cell growth inhibition measured after 72 hrs by SRB assay; format: functional, cell-based
[7] = tested on: SGC-7901; assay: Antiproliferative activity against androgen-positive human SGC-7901 cells assessed as cell growth inhibition measured after 72 hrs by SRB assay; format: functional, cell-based; settings: SGC-7901, 72 h
[8] = tested on: PC-3; assay: Antiproliferative activity against androgen-negative human PC-3 cells assessed as cell growth inhibition measured after 72 hrs by SRB assay; format: functional, cell-based; settings: PC-3, 72 h

| IC50 [1] [µM] | Activity [2] [%] | IC50 [5] [µM] | IC50 [6] [µM] | IC50 [7] [µM] | IC50 [8] [µM] | SMILES | IC50 [3] [µM] | IC50 [4] [µM] |
| --- | --- | --- | --- | --- | --- | --- | --- | --- |
| 5.8 | 79.5 | 7.73 | 3.97 | 4.98 | > 80 | CC1(C)C(=O)N(c2ccc(C#N)c(C(F)(F)F)c2)C(=S)N1CCCn1cc(COCCOCCOCCOC(=O)CC23CC4CC(CC(C4)C2)C3)nn1 | > 80 | > 80 |
| 12.3 | 87.8 | 13.3 | 1.86 | 7.79 | > 80 | CC1(C)C(=O)N(c2ccc(C#N)c(C(F)(F)F)c2)C(=S)N1CCCCn1cc(COCCOCCOC(=O)CC23CC4CC(CC(C4)C2)C3)nn1 | > 80 | > 80 |
| 6.03 | 74.6 | 9.12 | 4.06 | 4.11 | > 80 | CC1(C)C(=O)N(c2ccc(C#N)c(C(F)(F)F)c2)C(=S)N1CCCn1cc(COCCOCCOC(=O)CC23CC4CC(CC(C4)C2)C3)nn1 | > 80 | > 80 |
